Experimental data from patent US6608061B2, “Bisaryl compound and medicament for cancer treatment comprising the same” (Kyoma Hakko Kogyo Co., Ltd., priority 1997, dated 2003).
Where two headings read alike, the source gives them in different places.

What was measured:
[1] = system: human ovary cancer A2780 cells; assay: Antineoplastic effect against human ovary cancer A2780 cells transplanted to nude mice; format: in vivo, nude mice BALB/cAJcl-nu; settings: Mus musculus, read-out: Antitumor activity T/C
Excerpt: Antineoplastic Effect Against Human Ovary Cancer A2780 Cells
2 mm cubes (tumor fragments of 8 mm^3) of human ovary cancer A2780 cells were subcutaneously transplanted to nude mice BALB/cAJcl-nu (CLEA JAPAN) in the abdomens. When the tumor volume reached to from 50 to 300 mm^3 after the transplantation, the mice were arbitrarily divided into groups each consisting of 5 mice, and intraperitoneally administered with a drug solution once a day for 5 days. After weighing compounds, the drug solution was prepared before use by dissolving the drug in 99.5% ethanol (final concentration: 5%, analytical grade, Kanto Kagaku) or N,N-dimethylacetamide (final concentration: 5%, analytical grade, Kanto Kagaku), adding CREMOPHOR EL (a derivative of caster oil and ethylene oxide, final concentration: 10%, Sigma Chemical) to the solution, and suspending the solution in physiological saline (Otsuka Physiological Saline for Injection, Otsuka Pharmaceutical). For evaluation of the effect, a tumor volume was calculated in accordance with Equation 1, a ratio of tumor volume (V) after the administration of drug solution to tumor volume (V0) before the administration of drug solution was calculation (V/V0), and the ratio was compared with that for the untreated group to determine T/C (Equation 2). In the table, administration dose, T/C and evaluation day are shown. [formula]

[2] = system: HeLa S3 cells; assay: Test for growth inhibition of HeLa S3 cells; format: cell-based
Procedure: Test for Growth Inhibition of Hela S3 Cells
HeLa S3 cells prepared at 1×10^4 cells/ml in MEM culture medium containing 10% fetal bovine serum and 2 mM glutamine were added to each well of a 96-well microtiter plate (0.1 ml for each well). The cells were cultured at 37° C. in a CO2 incubator for 24 hours, and then 0.05 ml of test compound appropriately diluted with the above medium was added to each well, and then the mixture was cultured at 37° C. in a CO2 incubator for 72 hours. After the culture supernatant was removed, each well was washed with 0.1 ml of PBS buffer twice, and 0.1 ml of the aforementioned medium was added to each well again.
Cell Proliferation Kit II (Boehringer Mennheim) was used for measurement of cell number in each well. After a coloring reaction reagent was added, the plate was warmed to 37° C. in a CO2 incubator for 3 hours. Then, absorbances at 490 nm and 655 nm were measured by a microplate reader, and a value (difference of absorbance) was calculated for each well by subtracting the absorbance at […] from the absorbance at 490 nm. By comparing the differences of absorbance for cells without treatment and cells treated with a test compound at a known concentration, a concentration of test compound which inhibited the cell growth by 50% was calculated, and the value obtained was determined as IC50. The values of RNR inhibitory activity obtained in Example 8, and the values of cell growth inhibitory activity obtained in Example 9 are shown in the following tables (the compound numbers used in the tables correspond to the compound numbers shown in the aforementioned tables).

[3] = molecular target: T1, human RNR (purified R1 and R2 subunits) (Homo sapiens, UniProt P23921+P31350); assay: In vitro measurement of human RNR inhibitory activity (conversion of CDP to dCDP, HPLC); format: biochemical; settings: 100 μM CDP, 37° C., 30 minutes, read-out: RNR Inhibition (IC50)
T1 construct: made in house; host or cells: Escherichia coli BL21(λDE3)pLysS, plasmids pETR1 and pETR2 (pET3a backbone)
T1 sequence (P23921 1-792): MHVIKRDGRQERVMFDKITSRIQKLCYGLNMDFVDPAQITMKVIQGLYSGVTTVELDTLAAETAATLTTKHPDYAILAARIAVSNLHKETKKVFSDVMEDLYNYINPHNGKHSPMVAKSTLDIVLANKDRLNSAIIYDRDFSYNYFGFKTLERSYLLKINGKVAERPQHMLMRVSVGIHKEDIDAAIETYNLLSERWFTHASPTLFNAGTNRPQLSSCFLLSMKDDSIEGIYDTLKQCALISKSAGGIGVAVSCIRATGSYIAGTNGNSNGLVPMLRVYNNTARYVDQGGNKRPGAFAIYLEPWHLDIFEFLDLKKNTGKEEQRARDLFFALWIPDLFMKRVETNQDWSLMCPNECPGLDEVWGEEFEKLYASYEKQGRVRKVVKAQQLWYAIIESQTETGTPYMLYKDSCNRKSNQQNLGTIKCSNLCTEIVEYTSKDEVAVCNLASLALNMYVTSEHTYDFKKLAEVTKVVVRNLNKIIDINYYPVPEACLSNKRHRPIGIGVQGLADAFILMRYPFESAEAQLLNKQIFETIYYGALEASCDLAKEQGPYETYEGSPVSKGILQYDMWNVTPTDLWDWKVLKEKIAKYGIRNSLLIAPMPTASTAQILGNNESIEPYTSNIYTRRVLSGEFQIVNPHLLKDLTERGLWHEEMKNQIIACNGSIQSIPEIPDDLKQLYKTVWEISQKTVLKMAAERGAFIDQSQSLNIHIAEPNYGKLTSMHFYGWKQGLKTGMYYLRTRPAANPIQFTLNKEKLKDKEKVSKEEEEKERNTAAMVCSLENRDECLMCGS
T1 sequence (P31350 1-389): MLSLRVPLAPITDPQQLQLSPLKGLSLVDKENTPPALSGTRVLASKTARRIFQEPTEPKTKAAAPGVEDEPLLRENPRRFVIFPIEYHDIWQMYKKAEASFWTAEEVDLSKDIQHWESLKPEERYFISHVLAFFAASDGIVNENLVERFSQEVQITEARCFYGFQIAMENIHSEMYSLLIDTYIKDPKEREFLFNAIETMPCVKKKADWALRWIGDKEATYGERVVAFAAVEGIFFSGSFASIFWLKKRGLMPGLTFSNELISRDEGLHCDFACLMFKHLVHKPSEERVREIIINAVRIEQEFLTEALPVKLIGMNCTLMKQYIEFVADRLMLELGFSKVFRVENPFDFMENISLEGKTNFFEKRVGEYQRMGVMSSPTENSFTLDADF

[4] = system: human lung cancer Lu-65 cells; assay: Antineoplastic effect against human lung cancer Lu-65 cells transplanted to nude mice; format: in vivo, nude mice BALB/cAJcl-nu; settings: Lu-65 s.c. in nude mice; 1000 (500 × 2) mg/kg/day intraperitoneally twice a day for 5 days; evaluation day 7
Excerpt: Antineoplastic Effect Against Human Lung Cancer Lu-65 Cells
2 mm cubes (tumor fragments of 8 mm^3) of human lung cancer Lu-65 cells were subcutaneously transplanted to nude mice BALB/cAJcl-nu (CLEA JAPAN) on their abdomens. When the tumor volume reached to from 50 to 300 mm^3 after the transplantation, the mice were arbitrarily divided into groups each consisting of 5 mice, and intraperitoneally administered with a drug solution twice a day for 5 days. After weighing compounds, the drug solution was prepared before use by dissolving the drug in 99.5% ethanol (final concentration: 5%, analytical grade, Kanto Kagaku), adding CREMOPHOR EL (a derivative of caster oil and ethylene oxide, final concentration: 10%, Sigma Chemical) to the solution, and suspending the solution in physiological saline (Otsuka Physiological Saline for Injection, Otsuka Pharmaceutical). For evaluation of the effect, a tumor volume was calculated in accordance with Equation 1, a ratio of tumor volume (V) after the administration of drug solution to tumor volume (V0) before the administration of drug solution was calculated (V/V0), and the ratio was compared with that for the untreated group to determine T/C (Equation 2). [formula]

[5] = ip, 96 h, A2780 s.c. in nude mice, 500 mg/kg/day intraperitoneally once a day for 5 days, evaluation day 4
[6] = Homo sapiens, HeLa S3, 72 h, HeLa S3 cells, 72 hours with test compound, Cell Proliferation Kit II, read-out: Cell growth inhibition (IC50)
[7] = ip, 168 h, A2780 s.c. in nude mice, 500 mg/kg/day intraperitoneally once a day for 5 days, evaluation day 7

IC50 [2, 6] [µM] | IC50 [3] [nM] | Compound | response vs control in vivo at 500 mg/kg/day [1, 5] [%] | response vs control in vivo at 500 mg/kg/day [1, 7] [%] | also measured
2.72 | 1690 | Oc1ccc(SCCN(CCSc2ccc(O)cc2)Cc2ccncc2)cc1 [Compound 91] | 48 | – | –
1.61 | 310 | NC(=O)CCN(CCSc1ccc(O)cc1)CCSc1ccc(O)cc1 [Compound 78] | 53 | – | –
1.74 | 2110 | COCCCN(CCSc1ccc(O)cc1)CCSc1ccc(O)cc1 [Compound 103] | 50 | – | –
1.42 | 690 | OCCN(CCSc1ccc(O)cc1)CCSc1ccc(O)cc1 [Compound 102] | – | 47 | –
3.06 | 1370 | CN(C)C(=O)CCN(CCSc1ccc(O)cc1)CCSc1ccc(O)cc1 [Compound 79] | 40 | – | –
4 | 460 | Oc1ccc(CN(CCSc2ccc(O)cc2)CCSc2ccc(O)cc2)cc1 [Compound 94] | – | 53 | –
4.97 | 1580 | Oc1ccc(SCCN(CCSc2ccc(O)cc2)Cc2ccccn2)cc1 [Compound 100] | – | – | melting point: 80 to 81 °C
3.09 | 2670 | NC(=O)C1CCCCN1C(=O)CN(CCSc1ccc(O)cc1)CCSc1ccc(O)cc1 (stereo not shown) [Compound 209] | – | 50 | –
2.38 | 60 | N#CCN(CCSc1ccc(O)cc1)CCSc1ccc(O)cc1 [Compound 77] | 54 | – | –
16.9 | 1380 | Oc1ccc(SCCOCCSc2ccc(O)c(F)c2)cc1F [Compound 190] | – | – | melting point: 87 to 88 °C
– | – | NC(=O)CN(CCSc1ccc(O)cc1)CCSc1ccc(O)cc1 [Compound 97] | – | 43 | melting point: 105 to 106 °C; IC50 ([2]; HeLa S3 cells, 72 hours with test compound, Cell Proliferation Kit II, read-out: Cell growth inhibition (IC50)): 0.88 µM
2.18 | 1190 | CCCN(CCSc1ccc(O)cc1)CCSc1ccc(O)cc1 [Compound 72] | 50 | – | –
3.04 | 3240 | O=C(CN(CCSc1ccc(O)cc1)CCSc1ccc(O)cc1)Nc1ncccn1 [Compound 211] | – | – | response vs control in vivo at 500 mg/kg/day ([1]; ip, 216 h, A2780 s.c. in nude mice, 500 mg/kg/day intraperitoneally once a day for 5 days, evaluation day 9): 37%
5.16 | 1730 | Oc1ccc(SCCN(O)CCSc2ccc(O)cc2)cc1 [Compound 48] | – | 54 | –

Compound | IC50 [2, 6] [µM] | IC50 [3] [nM] | response vs control in vivo at 500 mg/kg/day [1, 5] [%] | response vs control in vivo at 500 mg/kg/day [1, 7] [%] | also measured
Oc1ccc(SCCOCCSc2ccc(O)cc2)cc1 [Compound 27] | – | 500 | – | – | response vs control in vivo at 500 mg/kg/day ([1]; A2780, ip, 168 h): 46%; IC50 ([2]; Homo sapiens, HeLa S3, 72 h, read-out: Cell growth inhibition (IC50, μM)): 1.53 µM; Antitumor activity T/C [4]: 0.25
